Experimental data: patent US8716475B2, “2-aminopyrimidine modulators of the histamine H4 receptor” (Janssen Pharmaceutica NV, priority 2007, dated 2014)

Biological target: T1, human H4 receptor (Homo sapiens, UniProt Q9H3N8)
T1 construct: expressed in transfected cells
Test: Binding Assay on Recombinant Human Histamine H4 Receptor
Details: Table 1; [3H] histamine competition binding, membranes of SK-N-MC cells transfected with human H4 receptor; average of results
Method: Binding Assay on Recombinant Human Histamine H4 Receptor.
Cell pellets from SK-N-MC cells stably or transiently transfected with human H4 receptor were used for the binding assays. Cell pellets were homogenized in 50 mM Tris/5 mM EDTA buffer and supernatants from an 800g spin were collected and recentrifuged at 30,000g for 30 min. Pellets were rehomogenized in 50 mM Tris/5 mM EDTA buffer. […] Compounds were tested in free base, hydrochloride salt, or trifluoroacetic acid form. Nonspecific binding was defined with 100 μM cold histamine. […] Membranes were harvested by rapid filtration using the 96 well Brandel system or a cell harvester using a Whatman GF/C filter or filter plates treated with 0.5% polyethylenimine (PEI), and washed 4 times with ice-cold 50 mM Tris/5 mM EDTA buffer. Filters were then dried, mixed with scintillant and radioactive counts were determined. […] Data marked with an asterisk (*) were obtained by the cell harvester method. Where activity is shown as greater than (>) a particular value, the value is the highest concentration tested.

T1 sequence (Q9H3N8 whole entry): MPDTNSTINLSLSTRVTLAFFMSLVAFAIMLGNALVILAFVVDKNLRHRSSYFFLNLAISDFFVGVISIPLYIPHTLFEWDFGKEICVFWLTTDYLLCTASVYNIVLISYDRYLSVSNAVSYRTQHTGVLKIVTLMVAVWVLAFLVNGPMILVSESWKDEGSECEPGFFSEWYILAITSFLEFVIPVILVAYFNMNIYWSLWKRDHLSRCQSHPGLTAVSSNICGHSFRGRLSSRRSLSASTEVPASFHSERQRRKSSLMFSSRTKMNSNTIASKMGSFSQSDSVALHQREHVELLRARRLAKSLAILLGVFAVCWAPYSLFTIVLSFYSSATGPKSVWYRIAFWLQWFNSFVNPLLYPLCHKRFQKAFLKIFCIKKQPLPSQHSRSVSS

`Cc1nc(N)nc(N2C[C@@H]3C[C@H]2CN3)c1C` [Example 32, (S,S)-4-(2,5-Diaza-bicyclo[2.2.1]hept-2-yl)-5,6-dimethyl-pyrimidin-2-ylamine] and `Nc1nc2c(c(N3C[C@@H]4C[C@H]3CN4)n1)CCCC2` [Example 73, (S,S)-4-(2,5-Diaza-bicyclo[2.2.1]hept-2-yl)-5,6,7,8-tetrahydro-quinazolin-2-ylamine] cannot be ordered by Ki: > 10000 nM for the first, > 10000 nM for the second.

Compared with `Nc1nc(C2CCC2)cc(N2CC3CCCNC3C2)n1` (stereo not drawn) [Example 50, 4-Cyclobutyl-6-(cis-octahydro-pyrrolo[3,4-b]pyridin-6-yl)-pyrimidin-2-ylamine], `Nc1nc(C2CCCCC2)cc(N2CC3CCNC3C2)n1` (stereo not drawn) [Example 54, 4-Cyclohexyl-6-(cis-hexahydro-pyrrolo[3,4-b]pyrrol-5-yl)-pyrimidin-2-ylamine] is 1.5-fold lower in Ki: 3 nM for the first, 2 nM for the second.

First: Nc1nc(C2CCC2)cc(N2CCC[C@@H](N)C2)n1 [Example 45, (R)-4-(3-Amino-piperidin-1-yl)-6-cyclobutyl-pyrimidin-2-ylamine]
Second: Nc1nc(C2CCCC2)cc(N2CCC[C@@H](N)C2)n1 [Example 3, (R)-4-(3-Amino-piperidin-1-yl)-6-cyclopentyl-pyrimidin-2-ylamine]
The Ki of the first is 2.5-fold lower: 103 nM for the first, 257 nM for the second.

`CC(C)c1cc(N2C[C@H]3CCN[C@H]3C2)nc(N)n1` [Example 17, (R,R)-4-(Hexahydro-pyrrolo[3,4-b]pyrrol-5-yl)-6-isopropyl-pyrimidin-2-ylamine] and `CC(C)c1cc(N2CC3CCNC3C2)nc(N)n1` (stereo not drawn) [Example 16, 4-(cis-Hexahydro-pyrrolo[3,4-b]pyrrol-5-yl)-6-isopropyl-pyrimidin-2-ylamine] are within 1.5-fold of each other in Ki: 59 nM for the first, 65 nM for the second.

Compared with `CN1CCN(c2cc(C3CCC3)nc(N)n2)CC1` [Example 44, 4-Cyclobutyl-6-(4-methyl-piperazin-1-yl)-pyrimidin-2-ylamine], `Cc1nc(N)nc(N2CCNCC2)c1C` [Example 25, 4,5-Dimethyl-6-piperazin-1-yl-pyrimidin-2-ylamine] is 290-fold higher in Ki: 1 nM for the first, 286 nM for the second. The first binds more tightly here.

Work on `CN[C@@H]1CCN(c2nc(N)nc(C)c2C)C1` [Example 28, (R)-4,5-Dimethyl-6-(3-methylamino-pyrrolidin-1-yl)-pyrimidin-2-ylamine] yielded a Ki of 357 nM.

Same assay, conditions: Table 2, data marked with an asterisk (*): obtained by the cell harvester method; [3H] histamine competition binding, SK-N-MC membranes

`CN(CCN)c1cc(Cc2ccccc2)nc(N)n1` [Example 250, N^4-(2-Amino-ethyl)-6-benzyl-N^4-methyl-pyrimidine-2,4-diamine] was tested, and the Ki was 564 nM.

Same assay, conditions: Table 2; [3H] histamine competition binding, membranes of SK-N-MC cells transfected with human H4 receptor; average of results

Compared with `COc1c(C2CCCC2)nc(N)nc1N1C[C@H]2CCCN[C@H]2C1` [Example 188, (R,R)-4-Cyclopentyl-5-methoxy-6-(octahydro-pyrrolo[3,4-b]pyridin-6-yl)-pyrimidin-2-ylamine], `Nc1nc(C2CCCC2)cc(N2C[C@H]3CCCN[C@H]3C2)n1` [Example 81, (R,R)-4-Cyclopentyl-6-(octahydro-pyrrolo[3,4-b]pyridin-6-yl)-pyrimidin-2-ylamine] is 9-fold lower in Ki: 18 nM for the first, 2 nM for the second.

First: NCCNc1cc(C2CCOCC2)nc(N)n1 [Example 176, N^4-(2-Amino-ethyl)-6-(tetrahydro-pyran-4-yl)-pyrimidine-2,4-diamine]
Second: Nc1nc(C2CCOCC2)cc(N2CC[C@@H](N)C2)n1 [Example 175, (R)-4-(3-Amino-pyrrolidin-1-yl)-6-(tetrahydro-pyran-4-yl)-pyrimidin-2-ylamine]
The Ki of the first is 3.9-fold higher: 335 nM for the first, 85 nM for the second.

`CN1C[C@@H]2CN(c3nc(N)nc4c3COCC4)C[C@@H]2C1` [Example 254, 4-(cis-5-Methyl-hexahydro-pyrrolo[3,4-c]pyrrol-2-yl)-7,8-dihydro-5H-pyranol-[4,3-d]pyrimidin-2-ylamine] and `Nc1nc2c(c(N3CC(N)C3)n1)COCC2` [Example 252, 4-(3-Amino-azetidin-1-yl)-7,8-dihydro-5H-pyrano[4,3-d]pyrimidin-2-ylamine] cannot be ordered by Ki: > 10000 nM for the first, > 10000 nM for the second.

Compared with `Nc1nc(Cc2ccccc2)cc(N2CC(N)C2)n1` [Example 166, 4-(3-Amino-azetidin-1-yl)-6-benzyl-pyrimidin-2-ylamine], `Nc1nc(Cc2ccccc2)cc(N2CC[C@@H](N)C2)n1` [Example 167, (R)-4-(3-Amino-pyrrolidin-1-yl)-6-benzyl-pyrimidin-2-ylamine] is 1.5-fold higher in Ki: 52 nM for the first, 78 nM for the second.

First: Cc1nc(N)nc(N2CCNCC2)c1F [Example 201, 5-Fluoro-4-methyl-6-piperazin-1-yl-pyrimidin-2-ylamine]
Second: Cc1nc(N)nc(N2CCN(C)CC2)c1F [Example 199, 5-Fluoro-4-methyl-6-(4-methyl-piperazin-1-yl)-pyrimidin-2-ylamine]
The Ki of the first is 5.7-fold higher: 391 nM for the first, 69 nM for the second.

Going from `Nc1nc(C2CC2)cc(N2CC(N)C2)n1` [Example 122, 4-(3-Amino-azetidin-1-yl)-6-cyclopropyl-pyrimidin-2-ylamine] to `Nc1nc(C2CC2)cc(N2CC[C@@H](N)C2)n1` [Example 123, (R)-4-(3-Amino-pyrrolidin-1-yl)-6-cyclopropyl-pyrimidin-2-ylamine], the Ki falls from 22 nM to 4 nM (5.5-fold). The second binds more tightly here.

Compared with `CC(C)c1cc(N2CC[C@H](N)C2)nc(N)n1` [Example 126, (S)-4-(3-Amino-pyrrolidin-1-yl)-6-isopropyl-pyrimidin-2-ylamine], `CC(C)c1cc(N2CC3NCCOC3C2)nc(N)n1` (single isomer, unassigned) [Example 94, 4-(trans-Hexahydro-pyrrolo[3,4-b][1,4]oxazin-6-yl)-6-isopropyl-pyrimidin-2-ylamine] is 22-fold higher in Ki: 23 nM for the first, 497 nM for the second.

First: Nc1nc(Cc2ccncc2)cc(N2CCNCC2)n1 [Example 204, 4-piperazin-1-yl-6-pyridin-4-ylmethyl-pyrimidin-2-ylamine]
Second: CC(C)Cc1cc(N2CCNCC2)nc(N)n1 [Example 147, 4-Isobutyl-6-piperazin-1-yl-pyrimidin-2-ylamine]
The Ki of the first is 11-fold higher: 45 nM for the first, 4 nM for the second. The second binds more tightly here.

First: Nc1nc(C2CCOC2)cc(N2CCNCC2)n1 (single isomer, unassigned; (+)) [Example 194, (+)-4-piperazin-1-yl-6-(tetrahydro-furan-3-yl)-pyrimidin-2-ylamine]
Second: Nc1nc(C2CC2)cc(N2C[C@H]3CNC[C@H]3C2)n1 [Example 124, 4-Cyclopropyl-6-(cis-hexahydro-pyrrolo[3,4-c]pyrrol-2-yl)-pyrimidin-2-ylamine]
The Ki of the first is lower: 49 nM for the first, > 10000 nM for the second. The first binds more tightly here.

Compared with `CN[C@@H]1CCN(c2cc(C3CC3c3ccccc3)nc(N)n2)C1` (single isomer, unassigned) [Example 255], `CN[C@@H]1CCN(c2cc(C3(C)CCOCC3)nc(N)n2)C1` [Example 155, (R)-4-(3-Methylamino-pyrrolidin-1-yl)-6-(4-methyl-tetrahydro-pyran-4-yl)-pyrimidin-2-ylamine] is 2.4-fold higher in Ki: 34 nM for the first, 82 nM for the second. The first binds more tightly here.

Going from `Nc1nc(C2CCCC2)cc(N2CC3CNCC3C2)n1` (stereo not drawn) [Example 87, 4-Cyclopentyl-6-(hexahydro-pyrrolo[3,4-c]pyrrol-2-yl)-pyrimidin-2-ylamine] to `CN1C[C@@H]2CN(c3cc(C4CCCC4)nc(N)n3)C[C@@H]2C1` [Example 82, 4-Cyclopentyl-6-(cis-5-methyl-hexahydro-pyrrolo[3,4-c]pyrrol-2-yl)-pyrimidin-2-ylamine], the Ki falls from 328 nM to 25 nM (13-fold).

Going from `CCCc1cc(N2CCN(C)CC2)nc(N)n1` [Example 144, 4-(4-Methyl-piperazin-1-yl)-6-propyl-pyrimidin-2-ylamine] to `CC(C)(C)c1cc(N2CC3CCC(C2)N3)nc(N)n1` [Example 134, 4-tert-Butyl-6-(3,8-diaza-bicyclo[3.2.1]oct-3-yl)-pyrimidin-2-ylamine], the Ki rises from 6 nM to 130 nM (22-fold).
